Measurements as given in patent US7531576B2, “Biphenyl derivatives” (Pola Chemical Industries, Inc., priority 2000, dated 2009).

Biological target: ACAT
Assay: Evaluation of ACAT inhibitory activity (rat liver enzyme preparation, [14C]-oleoyl CoA substrate)
Type: biochemical
Settings: ACAT from liver of rats on high-cholesterol feed; 30° C.; pIC50 from concentration-response curve by the nonlinear least square method
Experimental: IR (cm^−1) (KBr): • 1517, 1521, 2962. Test (Evaluation of ACAT Inhibitory Activity) (1) Preparation of the Enzyme (ACAT)
(1-1) Each rat was reared for about 3 weeks on high-cholesterol feed (solid feed prepared by adding 1% of cholesterol, 0.3% of sodium cholate, 0.1% of propylthiouracil and 3% of lard to a conventional feed MF).
(1-2) The liver of the rat reared in (1-1) was collected and shredded. 10 mM HEPES buffer (pH 7.4) which contained 0.25 M of sucrose and 1 mM of EDTA was added in an amount about three times as much as the weight of the liver to suspend the latter. The liver was then homogenized by a glass-Teflon homogenizer.
(1-3) The homogenized liver was centrifuged for 15 minutes under 22000×g, and the supernatant was collected.
(1-4) The supernatant was centrifuged further for 60 minutes under 100000×g. To the precipitates, 10 mM HEPES buffer (pH 7.4) containing 0.25 M of sucrose and 1 mM of EDTA therein was added in about a half of the volume used in (1-2), and the precipitates were suspended again.
(1-5) The suspension was again centrifuged for 60 minutes under 100000×g, and the resulting precipitates were collected. 10 mM HEPES buffer (pH 7.4) containing 0.25 M of sucrose and 2 mM of DTT therein was added to suspend the precipitates. The suspension was stored at −80° C.
(2) Preparation of Reagents
0.75 M Phosphate buffer (pH 7.4), 800 μM BSA and 100 mM DTT were mixed together in amounts of 1.0 mL, 0.5 mL and 0.1 mL, respectively, and ultrapure water (3.4 mL) was added.
A refrigerated sample of the enzyme was diluted with the “reaction buffer” described above to 2.5 mg protein/mL.
10^−3 M Solutions of the compounds to be evaluated were prepared with methanol. 3×10^−4 M Solutions were each prepared by adding 50% methanol (700 μL) to the corresponding 10^−3 M solution (300 μL). 10^−4 M Solutions were each prepared by adding 50% methanol (600 μL) to the corresponding […] solution (300 μL). Up to 10^−7 M solutions (serial 3-fold dilutions), the solutions were prepared by a similar procedure.
(3) Assay Method of ACAT Activity
(3-1) ACAT (20 μL), the reaction buffer (20 μL) and desired one (5 μL) of test samples were placed in a 1.5 mL test tube and incubated at 30° C. for 10 minutes (the resulting solution will hereinafter be called “I”).
(3-2) Reaction substrate [^14C]-oleoyl CoA (5 μL) was added into “I”, and was allowed to react at 30° C. for 4 minutes.
(3-3) Four minutes later, methanol (250 μL) was added to terminate the reaction, and then, a lipid mixture (40 μL), recovery-percentage-correcting [^3H]-cholesteryl oleate (10 μL) and hexane (700 μL) were added into the test tube (this solution will hereinafter be called “II”).
(3-4) “II” was stirred in a mixer, and the hexane layer (500 μL) was collected and transferred into another test tube (this solution will hereinafter be called “III”).
(3-5) “III” was evaporated to dryness, dissolved in chloroform (10 μL), and then spotted on a TLC plate. At that time, cholesteryl oleate was also spotted.
(3-6) After the spots were dried, they were developed with a 85:15:0.5 mixture of hexane, diethyl ether and acetic acid as a developer solvent, and then stained with iodine. A plate section corresponding to the spot of cholesteryl oleate was cut out and placed in a vial. At the same time, the reaction substrate [^14C]-oleoyl CoA (5 μL) and the recovery-percentage-correcting [^3H]-cholesteryl oleate (10 μL) were spotted on the TLC plate, and similarly, plate sections were cut out and placed in vials, respectively.
(3-7) Subsequently, “Aquazole II” (about 10 mL) was added to the vials. After the vials were allowed to stand for a while, they were measured for [^14C] and [^3H] radioactivities.
Using the radioactivities, the % recovery of [^14C]-cholesteryl oleate formed by the enzymatic reaction was calculated from the radioactivity of [^3H], and from the radioactivity of [^14C], the yield of cholesteryl oleate was calculated. […]

Row | PIC50 | SMILES
1 | 5.39 | CCCCCN(CC(=O)Nc1c(C(C)C)cccc1C(C)C)Cc1ccc(-c2ccccc2-c2nnn[nH]2)cc1 [Compound of the formula (13), N-[[[(2,6-Diisopropylphenyl)amino]carbonyl]methyl]-N-pentyl-N-[[2′-(1H-tetrazol-5-yl)-1,1′-biphenyl-4-yl]methyl]amine]
2 | 5.71 | CCCCCN(Cc1ccc(-c2ccccc2NS(=O)(=O)C(F)(F)F)cc1)C(=O)Nc1c(F)cc(F)cc1F [Compound of the formula (11), N′-Pentyl-N′-[[2′-[[(trifluoromethyl)sulfonyl]-amino]-1,1′-biphenyl-4-yl]methyl]-N-(2,4,6-trifluorophenyl)urea]
3 | 5.18 | CCCCCCCN(Cc1ccc(-c2ccccc2-c2nnn[nH]2)cc1)C(=O)NC1CCCCC1 [Compound of the formula (9), N-Cyclohexyl-N′-heptyl-N′-[[2′-(1H-tetrazol-5-yl)-1,1′-biphenyl-4-yl]methyl]urea]
4 | 6.23 | CCCCCCCN(Cc1ccc(-c2ccccc2-c2nnn[nH]2)cc1)C(=O)Nc1c(F)cc(F)cc1F [Compound of the formula (7), N′-Heptyl-N′-[[2′-(1H-tetrazol-5-yl)-1,1′-biphenyl-4-yl]methyl]-N-(2,4,6-trifluorophenyl)urea]
5 | 5.72 | CCCCCN(Cc1ccc(-c2ccccc2-c2nnn[nH]2)cc1)C(=O)Nc1c(C(C)C)cccc1C(C)C [Compound of the formula (4), N-(2,6-Diisopropylphenyl)-N′-pentyl-N′-[[2′-(1H-tetrazol-5-yl)-1,1′-biphenyl-4-yl]methyl]urea]
6 | 5.65 | CCCCCN(Cc1ccc(-c2ccccc2-c2nnn[nH]2)cc1)C(=O)Nc1c(C)cc(C)cc1C [Compound of the formula (5), N′-Pentyl-N′-[[2′-(1H-tetrazol-5-yl)-1,1′-biphenyl-4-yl]methyl]-N-(2,4,6-trimethylphenyl)urea]
7 | 5.21 | CCCCCN(CC(=O)Nc1c(F)cc(F)cc1F)Cc1ccc(-c2ccccc2-c2nnn[nH]2)cc1 [Compound of the formula (15), N-Pentyl-N-[[2′-(1H-tetrazol-5-yl)-1,1′-biphenyl-4-yl]methyl]-N-[[[(2,4,6-trifluorophenyl)amino]-carbonyl]methyl]amine]
8 | 5.52 | CCCCCN(Cc1ccc(-c2ccccc2-c2nnn[nH]2)cc1)C(=O)Nc1c(F)cc(F)cc1F [Compound of the formula (6), N′-Pentyl-N′-[[2′-(1H-tetrazol-5-yl)-1,1′-biphenyl-4-yl]methyl]-N-(2,4,6-trifluorophenyl)urea]
9 | 5.49 | CCCCCCCN(Cc1ccc(-c2ccccc2-c2nnn[nH]2)cc1)C(=O)Nc1ccc(F)cc1F [Compound of the formula (8), N-(2,4-Difluorophenyl)-N′-heptyl-N′-[[2′-(1H-tetrazol-5-yl)-1,1′-biphenyl-4-yl]methyl]urea]
10 | 6.40 | CCCCCCCN(Cc1ccc(-c2ccccc2S(=O)(=O)NC(=O)Nc2c(C(C)C)cccc2C(C)C)cc1)C(=O)Nc1c(F)cc(F)cc1F [Compound of the formula (12), N′-[[2′-[[[[(2,6-Diisopropylphenyl)amino]-carbonyl]amino]sulfonyl]-1,1′-biphenyl-4-yl]methyl]-N′-heptyl-N-(2,4,6-trifluorophenyl)urea]
11 | 6.57 | CCCCCN(Cc1ccc(-c2ccccc2NC(=O)C(F)(F)F)cc1)C(=O)Nc1c(F)cc(F)cc1F [Compound of the formula (10), N′-Pentyl-N′-[[2′-[[(trifluoromethyl)carbonyl]-amino]-1,1′-biphenyl-4-yl]methyl]-N-(2,4,6-trifluorophenyl)urea]
12 | 5.23 | CCCCCN(CC(=O)Nc1c(C)cc(C)cc1C)Cc1ccc(-c2ccccc2-c2nnn[nH]2)cc1 [Compound of the formula (14), N-Pentyl-N-[[2′-(1H-tetrazol-5-yl)-1,1′-biphenyl-4-yl]methyl]-N-[[[(2,4,6-trimethylphenyl)amino]-carbonyl]methyl]amine]
